Test results: ChEMBL document CHEMBL5620353, “Novel antifungal triazoles with alkynyl-methoxyl side chains: Design, synthesis, and biological activity evaluation” (Eur J Med Chem, 2023)
≈ marks a conversion by molar mass, not a printed value.

Assays:
Format in all cases: functional
[1] = system: Candida parapsilosis; assay: Antifungal activity against Candida parapsilosis 22019 assessed as inhibition of fungal growth incubated for 48 hrs by microbroth dilution method; details: Lodderomyces parapsilosis
[2] = system: Candida albicans; assay: Antifungal activity against Candida albicans 10231 assessed as inhibition of fungal growth incubated for 48 hrs by microbroth dilution method
[3] = system: [Candida] auris; assay: Antifungal activity against fluconazole-resistant Candida auris 891 assessed as inhibition of fungal growth incubated for 48 hrs by microbroth dilution method; details: Candidozyma auris
[4] = system: [Candida] auris; assay: Antifungal activity against fluconazole-resistant Candida auris 919 assessed as inhibition of fungal growth incubated for 48 hrs by microbroth dilution method; details: Candidozyma auris
[5] = system: [Candida] auris; assay: Antifungal activity against fluconazole-resistant Candida auris 918 assessed as inhibition of fungal growth incubated for 48 hrs by microbroth dilution method; details: Candidozyma auris
[6] = system: Nakaseomyces glabratus; assay: Antifungal activity against Candida glabrata 537 assessed as inhibition of fungal growth incubated for 48 hrs by microbroth dilution method
[7] = system: Candida albicans; assay: Antifungal activity against fluconazole-resistant Candida albicans 904 assessed as inhibition of fungal growth incubated for 48 hrs by microbroth dilution method
[8] = system: Candida tropicalis; assay: Antifungal activity against Candida tropicalis 8915 assessed as inhibition of fungal growth incubated for 48 hrs by microbroth dilution method
[9] = system: Candida albicans; assay: Antifungal activity against Candida albicans SC5314 assessed as inhibition of fungal growth incubated for 48 hrs by microbroth dilution method
[10] = system: Pichia kudriavzevii; assay: Antifungal activity against Candida krusei 4996 assessed as inhibition of fungal growth incubated for 48 hrs by microbroth dilution method
[11] = system: Aspergillus fumigatus; assay: Antifungal activity against Aspergillus fumigatus 7544 assessed as inhibition of fungal growth incubated for 72 hrs by microbroth dilution method
[12] = system: Cryptococcus neoformans; assay: Antifungal activity against Cryptococcus neoformans 32,609 assessed as inhibition of fungal growth incubated for 72 hrs by microbroth dilution method
[13] = system: Candida albicans; assay: Antifungal activity against fluconazole-resistant Candida albicans 901 assessed as inhibition of fungal growth incubated for 48 hrs by microbroth dilution method
[14] = system: Nakaseomyces glabratus; assay: Potency index, ratio of fluconazole MIC to test compound MIC for antifungal activity against Candida glabrata 537 assessed as inhibition of fungal growth incubated for 48 hrs by microbroth dilution method

SMILES	MIC [1]	MIC [2]	MIC [3]	MIC [4]	MIC [5]	MIC [6]	MIC [7]	MIC [8]	MIC [9]	MIC [10]	MIC [11]	MIC [12]	MIC [13]	Ratio [14]
C[C@@H](OCC#Cc1ccc(Cl)cc1Cl)[C@](O)(Cn1cncn1)c1ccc(F)cc1F	4 µg/mL (≈ 8.84 µM)	32 µg/mL (≈ 70.8 µM)	32 µg/mL (≈ 70.8 µM)	8 µg/mL (≈ 17.7 µM)	16 µg/mL (≈ 35.4 µM)	0.25 µg/mL (≈ 0.553 µM)	32 µg/mL (≈ 70.8 µM)	32 µg/mL (≈ 70.8 µM)	≤ 0.125 µg/mL	32 µg/mL (≈ 70.8 µM)	4 µg/mL (≈ 8.84 µM)	2 µg/mL (≈ 4.42 µM)	64 µg/mL (≈ 142 µM)	–
C[C@@H](OCC#Cc1ccccc1)[C@](O)(Cn1cncn1)c1ccc(F)cc1F	0.5 µg/mL (≈ 1.3 µM)	8 µg/mL (≈ 20.9 µM)	–	–	–	≤ 0.125 µg/mL	–	32 µg/mL (≈ 83.5 µM)	≤ 0.125 µg/mL	8 µg/mL (≈ 20.9 µM)	4 µg/mL (≈ 10.4 µM)	0.5 µg/mL (≈ 1.3 µM)	–	>=8
C[C@@H](OCC#Cc1ccccn1)[C@](O)(Cn1cncn1)c1ccc(F)cc1F	0.5 µg/mL (≈ 1.3 µM)	32 µg/mL (≈ 83.2 µM)	–	–	–	≤ 0.125 µg/mL	–	> 64 µg/mL	≤ 0.125 µg/mL	16 µg/mL (≈ 41.6 µM)	8 µg/mL (≈ 20.8 µM)	0.5 µg/mL (≈ 1.3 µM)	–	>=8
C[C@@H](OCC#Cc1ccccc1F)[C@](O)(Cn1cncn1)c1ccc(F)cc1F	2 µg/mL (≈ 4.98 µM)	8 µg/mL (≈ 19.9 µM)	–	–	–	≤ 0.125 µg/mL	–	64 µg/mL (≈ 159 µM)	≤ 0.125 µg/mL	8 µg/mL (≈ 19.9 µM)	4 µg/mL (≈ 9.97 µM)	0.5 µg/mL (≈ 1.25 µM)	–	>=8
C[C@@H](OCC#Cc1cccc(F)c1F)[C@](O)(Cn1cncn1)c1ccc(F)cc1F	1 µg/mL (≈ 2.38 µM)	16 µg/mL (≈ 38.2 µM)	–	–	–	≤ 0.125 µg/mL	–	32 µg/mL (≈ 76.3 µM)	≤ 0.125 µg/mL	8 µg/mL (≈ 19.1 µM)	8 µg/mL (≈ 19.1 µM)	1 µg/mL (≈ 2.38 µM)	–	>=8
C[C@@H](OCC#Cc1c(Cl)cc(Cl)cc1Cl)[C@](O)(Cn1cncn1)c1ccc(F)cc1F	2 µg/mL (≈ 4.11 µM)	> 64 µg/mL	–	–	–	≤ 0.125 µg/mL	–	64 µg/mL (≈ 131 µM)	1 µg/mL (≈ 2.05 µM)	16 µg/mL (≈ 32.9 µM)	2 µg/mL (≈ 4.11 µM)	0.5 µg/mL (≈ 1.03 µM)	–	>=8
Cc1ccc(C#CCO[C@H](C)[C@](O)(Cn2cncn2)c2ccc(F)cc2F)cc1	4 µg/mL (≈ 10.1 µM)	16 µg/mL (≈ 40.3 µM)	–	–	–	≤ 0.125 µg/mL	–	16 µg/mL (≈ 40.3 µM)	≤ 0.125 µg/mL	32 µg/mL (≈ 80.5 µM)	4 µg/mL (≈ 10.1 µM)	2 µg/mL (≈ 5.03 µM)	–	>=8
C[C@@H](OCC#Cc1cc(Cl)ccc1Cl)[C@](O)(Cn1cncn1)c1ccc(F)cc1F	4 µg/mL (≈ 8.84 µM)	> 64 µg/mL	–	–	–	≤ 0.125 µg/mL	–	> 64 µg/mL	0.25 µg/mL (≈ 0.553 µM)	32 µg/mL (≈ 70.8 µM)	16 µg/mL (≈ 35.4 µM)	2 µg/mL (≈ 4.42 µM)	–	>=8
Cc1ccccc1C#CCO[C@H](C)[C@](O)(Cn1cncn1)c1ccc(F)cc1F	4 µg/mL (≈ 10.1 µM)	8 µg/mL (≈ 20.1 µM)	–	–	–	0.25 µg/mL (≈ 0.629 µM)	–	32 µg/mL (≈ 80.5 µM)	0.25 µg/mL (≈ 0.629 µM)	16 µg/mL (≈ 40.3 µM)	4 µg/mL (≈ 10.1 µM)	1 µg/mL (≈ 2.52 µM)	–	–
C[C@@H](OCC#Cc1cccnc1)[C@](O)(Cn1cncn1)c1ccc(F)cc1F	≤ 0.125 µg/mL	32 µg/mL (≈ 83.2 µM)	–	–	–	≤ 0.125 µg/mL	–	64 µg/mL (≈ 166 µM)	≤ 0.125 µg/mL	4 µg/mL (≈ 10.4 µM)	4 µg/mL (≈ 10.4 µM)	≤ 0.125 µg/mL	–	>=8
C[C@@H](OCC#Cc1c(F)cccc1F)[C@](O)(Cn1cncn1)c1ccc(F)cc1F	0.5 µg/mL (≈ 1.19 µM)	16 µg/mL (≈ 38.2 µM)	–	–	–	0.25 µg/mL (≈ 0.596 µM)	–	64 µg/mL (≈ 153 µM)	≤ 0.125 µg/mL	4 µg/mL (≈ 9.54 µM)	1 µg/mL (≈ 2.38 µM)	≤ 0.125 µg/mL	–	–
C[C@@H](OCC#Cc1ccc(OC(F)(F)F)cc1)[C@](O)(Cn1cncn1)c1ccc(F)cc1F	16 µg/mL (≈ 34.2 µM)	32 µg/mL (≈ 68.5 µM)	–	–	–	2 µg/mL (≈ 4.28 µM)	–	32 µg/mL (≈ 68.5 µM)	4 µg/mL (≈ 8.56 µM)	64 µg/mL (≈ 137 µM)	8 µg/mL (≈ 17.1 µM)	4 µg/mL (≈ 8.56 µM)	–	–
C[C@@H](OCC#Cc1ccccc1Cl)[C@](O)(Cn1cncn1)c1ccc(F)cc1F	1 µg/mL (≈ 2.39 µM)	16 µg/mL (≈ 38.3 µM)	–	–	–	0.25 µg/mL (≈ 0.598 µM)	–	64 µg/mL (≈ 153 µM)	0.25 µg/mL (≈ 0.598 µM)	8 µg/mL (≈ 19.1 µM)	4 µg/mL (≈ 9.57 µM)	2 µg/mL (≈ 4.79 µM)	–	–
